# Experimental data from EP4722201A1, “3-PHENYLISOXAZOLINE-5-CARBOXAMIDE COMPOUND, AND PREPARATION METHOD THEREFOR, HERBICIDAL COMPOSITION THEREOF AND USE THEREOF” (Jiangsu Flag Chemical Industry Co., Ltd, priority 2023, dated 2024).
# Key:
# Assay in all cases: Indoor herbicide activity determination, Seed Treatment; pre-emergence (soil spray)
# Assay type in all cases: in vivo
# Aegilops tauschii = conditions: 120 g a.i./ha, read-out: Herbicidal activities (inhibition rate) Aegilops tauschii
# Outline: (§1)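 Weed seeds were sown in 7 cm pots of sandy nutrient soil (pH 6.1, 1% organic matter), covered, bottom-watered and held 24 h in a constant-temperature illuminated room before the soil surface was sprayed in a traveling spray tower. Fresh-weight inhibition versus untreated plants was scored 21 days later.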
# Alopecurus japonicus = conditions: Dosage 240 g a.i./ha
# Outline: as §1
# Alopecurus myosuroides = conditions: Dosage 240 g a.i./ha
# Outline: as §1
# Cyperus iria = conditions: 120 g a.i./ha, read-out: Herbicidal activities (inhibition rate) Cyperus iria
# Outline: as §1
# Digitaria sanguinalis = conditions: 120 g a.i./ha, read-out: Herbicidal activities (inhibition rate) Digitaria sanguinalis
# Outline: as §1
# Eclipta prostrata = conditions: 120 g a.i./ha, read-out: Herbicidal activities (inhibition rate) Eclipta prostrata
# Outline: as §1
# Eleusine indica = conditions: Dosage 240 g a.i./ha
# Outline: as §1
# Leptochloa chinensis = conditions: Dosage 240 g a.i./ha
# Outline: as §1
# Lolium multiflorum = conditions: Dosage 240 g a.i./ha
# Outline: as §1
SMILES,inhibition at 120 g/ha (Aegilops tauschii) [%],"Herbicidal activities, Alopecurus japonicus (inhibition rate class) (Alopecurus japonicus)","Herbicidal activities, Alopecurus myosuroides (inhibition rate class) (Alopecurus myosuroides)",inhibition at 120 g/ha (Cyperus iria) [%],inhibition at 120 g/ha (Digitaria sanguinalis) [%],inhibition at 120 g/ha (Eclipta prostrata) [%],"Herbicidal activities, Eleusine indica (inhibition rate class) (Eleusine indica)","Herbicidal activities, Leptochloa chinensis (inhibition rate class) (Leptochloa chinensis)","Herbicidal activities, Lolium multiflorum (inhibition rate class) (Lolium multiflorum)"
C=CC1(C(=O)N[C@H]2CO[C@@H](C(=O)OC)C2)CC(c2cc(F)cc(C(F)(F)F)c2)=NO1 (mixture of isomers) [I-368],80 to 100,A (A indicates that the inhibition rate was greater than or equal to 80% to 100%),A (A indicates that the inhibition rate was greater than or equal to 80% to 100%),60 to 80,60 to 80,40 to 60,A (A indicates that the inhibition rate was greater than or equal to 80% to 100%),A (A indicates that the inhibition rate was greater than or equal to 80% to 100%),A (A indicates that the inhibition rate was greater than or equal to 80% to 100%)
C=CC1(C(=O)N[C@H]2CO[C@@H](C(=O)OC)C2)CC(c2cc(F)cc(OC(F)(F)F)c2)=NO1 (mixture of isomers) [I-369],80 to 100,A (A indicates that the inhibition rate was greater than or equal to 80% to 100%),A (A indicates that the inhibition rate was greater than or equal to 80% to 100%),60 to 80,60 to 80,40 to 60,A (A indicates that the inhibition rate was greater than or equal to 80% to 100%),A (A indicates that the inhibition rate was greater than or equal to 80% to 100%),A (A indicates that the inhibition rate was greater than or equal to 80% to 100%)
C=CC1(C(=O)N[C@H]2CO[C@@H](C(=O)OC)C2)CC(c2cc(F)cc(OC(F)F)c2)=NO1 (mixture of isomers) [I-370],80 to 100,A (A indicates that the inhibition rate was greater than or equal to 80% to 100%),A (A indicates that the inhibition rate was greater than or equal to 80% to 100%),80 to 100,60 to 80,60 to 80,A (A indicates that the inhibition rate was greater than or equal to 80% to 100%),A (A indicates that the inhibition rate was greater than or equal to 80% to 100%),A (A indicates that the inhibition rate was greater than or equal to 80% to 100%)
C=CC1(C(=O)N[C@H]2CO[C@@H](C(=O)OC)C2)CC(c2cc(Cl)cc(C(F)(F)F)c2)=NO1 (mixture of isomers) [I-371],80 to 100,A (A indicates that the inhibition rate was greater than or equal to 80% to 100%),A (A indicates that the inhibition rate was greater than or equal to 80% to 100%),60 to 80,60 to 80,40 to 60,A (A indicates that the inhibition rate was greater than or equal to 80% to 100%),A (A indicates that the inhibition rate was greater than or equal to 80% to 100%),A (A indicates that the inhibition rate was greater than or equal to 80% to 100%)
C=CC1(C(=O)N[C@H]2CO[C@@H](C(=O)OC)C2)CC(c2cc(Cl)cc(OC(F)(F)F)c2)=NO1 (mixture of isomers) [I-372],80 to 100,A (A indicates that the inhibition rate was greater than or equal to 80% to 100%),A (A indicates that the inhibition rate was greater than or equal to 80% to 100%),80 to 100,80 to 100,80 to 100,A (A indicates that the inhibition rate was greater than or equal to 80% to 100%),A (A indicates that the inhibition rate was greater than or equal to 80% to 100%),A (A indicates that the inhibition rate was greater than or equal to 80% to 100%)
